From patent US9938273B2 (Plexxikon Inc., priority 2015, dated 2018)

Columns and labels:
FLT3-D835Y = target: T1, FLT3-D835Y (Homo sapiens, UniProt P36888, D835Y); test: AlphaScreen kinase assay with recombinant enzyme, FLT3-D835Y; format: biochemical; details: 8pt, GMean
T1 construct: purchased Invitrogen PV3967
T1 sequence (P36888 27-993 D835Y): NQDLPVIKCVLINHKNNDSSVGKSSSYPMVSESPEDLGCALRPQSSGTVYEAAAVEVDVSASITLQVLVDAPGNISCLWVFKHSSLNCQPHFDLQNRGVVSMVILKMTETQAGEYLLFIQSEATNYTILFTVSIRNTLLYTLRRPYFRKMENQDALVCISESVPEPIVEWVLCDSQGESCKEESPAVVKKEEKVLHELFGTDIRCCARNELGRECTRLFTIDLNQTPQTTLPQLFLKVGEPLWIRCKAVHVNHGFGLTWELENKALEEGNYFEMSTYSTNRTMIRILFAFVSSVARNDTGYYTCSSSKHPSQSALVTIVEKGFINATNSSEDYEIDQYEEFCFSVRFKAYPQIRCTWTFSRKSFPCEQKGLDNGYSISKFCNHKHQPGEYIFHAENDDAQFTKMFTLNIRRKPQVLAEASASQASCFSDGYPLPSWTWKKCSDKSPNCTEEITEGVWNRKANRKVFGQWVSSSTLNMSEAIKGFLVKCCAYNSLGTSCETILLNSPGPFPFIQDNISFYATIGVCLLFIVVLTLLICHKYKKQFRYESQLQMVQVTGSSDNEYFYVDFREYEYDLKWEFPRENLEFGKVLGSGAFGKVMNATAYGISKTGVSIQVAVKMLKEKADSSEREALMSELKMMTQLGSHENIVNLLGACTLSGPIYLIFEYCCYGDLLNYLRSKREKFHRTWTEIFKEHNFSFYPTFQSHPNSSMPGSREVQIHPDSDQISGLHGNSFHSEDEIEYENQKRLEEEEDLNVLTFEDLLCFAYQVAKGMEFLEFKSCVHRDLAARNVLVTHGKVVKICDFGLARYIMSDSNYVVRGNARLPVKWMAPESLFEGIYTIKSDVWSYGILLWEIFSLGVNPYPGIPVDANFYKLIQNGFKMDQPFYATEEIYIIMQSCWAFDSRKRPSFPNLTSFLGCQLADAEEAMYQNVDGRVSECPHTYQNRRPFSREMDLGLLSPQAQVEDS
Outline: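 Inhibition was measured as a drop in AlphaScreen signal arising from phosphotyrosine-bead capture of a biotinylated poly(Glu4-Tyr) peptide (30 nM) phosphorylated by recombinant kinase. For IC50 work the stated final concentration was 10 μM for the FLT3 mutants and 100 μM for c-KIT.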

[1] = system: MOLM-14 F691L cells, FLT3 ITD and FLT3 F691L; test: Cell proliferation assay (CellTiter-Glo), MOLM-14 F691L; format: cell-based; details: Homo sapiens, 72 h, 3d-Growth, GMean
Outline: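 MOLM-14 AML cells (endogenous FLT3 ITD, AC220-selected D835Y or F691L variants) or murine Ba/F3 expressing full-length FLT3 ITD/D835Y, without IL-3 for FLT3 dependence, 1×10^4 cells/well. Eight-point 1:3 series from 1 μM final, 0.2% DMSO, 3 days at 37 °C. CellTiter-Glo luminescence (ATP) gave IC50.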

| IC50 (FLT3-D835Y) | IC50 [1] | SMILES |
| --- | --- | --- |
| 0.0001 to 10 µM | 0.0001 to 10 µM | CCCOc1ncc(-c2cc3cc(-c4cccc(C(=O)NC(C)(C)C#N)n4)cnc3[nH]2)cn1 [Compound P-0206, N-(1-cyano-1-methyl-ethyl)-6-[2-(2-propoxypyrimidin-5-yl)-1H-pyrrolo[2,3-b]pyridin-5-yl]pyridine-2-carboxamide] |
| 0.0001 to 10 µM | 0.0001 to 10 µM | CC(C)(C#N)NC(=O)c1cccc(-c2cnc3[nH]c(-c4ccc(F)nc4)cc3c2)n1 [Compound P-0208, N-(1-cyano-1-methyl-ethyl)-6-[2-(6-fluoro-3-pyridyl)-1H-pyrrolo[2,3-b]pyridin-5-yl]pyridine-2-carboxamide] |
| 0.0001 to 10 µM | 0.0001 to 10 µM | CC(C)(C#N)NC(=O)c1cccc(-c2cnc3[nH]c(-c4cnc(C(C)(C)O)nc4)cc3c2)n1 [Compound P-0211, N-(1-cyano-1-methyl-ethyl)-6-[2-[2-(1-hydroxy-1-methyl-ethyl)pyrimidin-5-yl]-1H-pyrrolo[2,3-b]pyridin-5-yl]pyridine-2-carboxamide] |
